Data set [1] relates to recreational stimulant users. The data set can be described thus: Intravenous abuse potential, VAS pharmacodynamic scores (Example 2). The format is in vivo, human. The following applies: SDX Cl 30 mg, d-MPH HCl 15 mg, bipolar VAS. From the text: “Drug liking” score, used herein, is the score used to assess the degree that a human participant likes a drug effect at the time the question is being asked (that is, at the moment). It is scored using a 0 to 100 point bipolar visual analogue scale (VAS) anchored in the center with a neutral anchor of “neither like nor dislike” (score of 50), on the left with “strong disliking” (score of 0) and on the right with “strong liking” (score of 100).
“Euphoria” or “Feeling High” score, used herein, is the term to describe the score used to assess the degree that a human participant is high at the time the question is being asked (that is, at the moment). It is scored using a 0 to 100 point unipolar visual analogue scale (VAS) anchored on the left with “Not at All” (score of 0) and on the right with “Extremely” (score of 100).
“Take Drug Again” score, used herein, is the term to describe the score used to assess the degree that a human participant wants to take the drug again, if given the opportunity, based on his/her opinion now, i.e., at the time the question is being asked. It is scored using a 0 to 100 point unipolar visual analogue scale (VAS) anchored on the left with “Definitely Would Not” (score of 0) and on the right with “Definitely Would” (score of 100).
“Overall Drug Liking” score, used herein, is the term to describe the score used to assess the human subject's global perception of drug liking (i.e., the subjective effects over the whole course of the drug experience including any carryover effects). Subjects respond to the statement “Overall, my liking for this drug is.” The question is scored using a 0-100 point bipolar VAS anchored on the left with “Strong Disliking” (score of 0); “Neither Like nor Dislike” (score of 50) in the middle, and anchored on the right with “Strong Liking” (score of 100). This scale has the advantage of the human subject being relatively less affected or unaffected by acute study drug effects (if any) by the time of the assessment.
“Good Effects” score, used herein, is the term to describe the score used to assess the degree that a human participant is feeling good drug effects at the time the question is being asked (that is, at the moment). Subjects respond to the statement “At this moment, I can feel good drug effects.” It is scored using a 0 to 100 point unipolar visual analogue scale (VAS) anchored on the left with “Not at All” (score of 0) and on the right with “Extremely” (score of 100).
Safety assessments were performed throughout the study.

In data set [2] the test system is recreational stimulant users. The data set can be described thus: Treatment-emergent adverse events, intravenous study (Example 2). The procedure: A study was conducted in humans to assess the intravenous abuse potential of serdexmethylphenidate relative to unconjugated d-methylphenidate and placebo in recreational stimulant abusers. This was a Phase 1, randomized, double-blind study in which serdexmethylphenidate and d-methylphenidate were administered intravenously in recreational stimulant users with a history of non-oral abuse. In Part A of the study, subjects (Cohort 1) participated in a dose-escalation phase to determine the optimal dose of intravenous d-methylphenidate based on tolerability and abuse-related pharmacodynamic assessments. […] The doses of serdexmethylphenidate and d-methylphenidate are equivalent with respect to molar amount of d-methylphenidate. FDA-recommended abuse potential measures and blood samples were collected at different times after dosing. Safety assessments were performed throughout the study.

In data set [3] the test system is healthy, nondependent, recreational stimulant users. The data set can be described thus: Oral abuse potential, VAS pharmacodynamic scores (Example 4). As to conditions: phentermine HCl 60 mg.
[4] abbreviates: SDX Cl 120 mg, Focalin XR 80 mg.
Setting [5] is: SDX Cl 120 mg, Focalin XR 80 mg, bipolar VAS.
[6] abbreviates: SDX Cl 120 mg, Focalin XR 80 mg, unipolar VAS.

Where a name gives a salt, the structure may show the parent alone. Marks after values point to notes of the source that are not given here.

Turning to `COC(=O)[C@H](c1ccccc1)[C@H]1CCCCN1` [d-methylphenidate, methyl (R)-2-phenyl-2-((R)-piperidin-2-yl)acetate, reference compound], the “Drug Liking Emax (mean)” value in data set [1] was 84.3. Also, the “typical stimulant-related Adverse Events (euphoric mood, hypervigilance, increased heart rate), frequency vs serdexmethylphenidate” value in data set [2] is listed as “more common”.
As for `CC(C)(N)Cc1ccccc1` [phentermine hydrochloride, reference compound], in data set [3] (Focalin XR 80 mg), the “Mean difference Any Effects Emax vs SDX Cl 120 mg” value was 37.4, the “Mean difference Any Effects Emax vs SDX Cl 240 mg” value is 28.0, the “Mean difference Bad Effects Emax vs SDX Cl 120 mg” value was determined as 11.9 and the “Mean difference Bad Effects Emax vs SDX Cl 240 mg” value was determined as 4.6. For the same molecule, in data set [3] (Focalin XR 80 mg), the “Mean difference Drug Liking Emax vs SDX Cl 120 mg” value turned out to be 15.5, the “Mean difference Drug Liking Emax vs SDX Cl 240 mg” value is 14.0, the “Mean difference Feeling Alert/Drowsy Emax vs SDX Cl 120 mg” value was 15.7 and the “Mean difference Feeling Alert/Drowsy Emax vs SDX Cl 240 mg” value is reported as 12.2. For the same molecule, in data set [3] (Focalin XR 80 mg), the “Mean difference Feeling High Emax vs SDX Cl 120 mg” value was determined as 36.0, the “Mean difference Feeling High Emax vs SDX Cl 240 mg” value is listed as 27.7, the “Mean difference Good Effects Emax vs SDX Cl 120 mg” value stood at 35.5 and the “Mean difference Good Effects Emax vs SDX Cl 240 mg” value is on record as 30.2. Besides, in data set [3] (Focalin XR 80 mg), the “Mean difference Overall Drug Liking Emax vs SDX Cl 120 mg” value was determined as 14.9, the “Mean difference Overall Drug Liking Emax vs SDX Cl 240 mg” value stood at 15.3, the “Mean difference Take Drug Again Emax vs SDX Cl 120 mg” value was 14.9 and the “Mean difference Take Drug Again Emax vs SDX Cl 240 mg” value was found to be 15.4. Also, in data set [3] (setting [4]), the “Mean difference Any Effects Emax vs placebo” value amounted to 48.5, the “Mean difference Drug Liking Emax vs placebo” value is recorded as 22.3, the “Mean difference Feeling Alert/Drowsy Emax vs placebo” value amounted to 23.5 and the “Mean difference Feeling High Emax vs placebo” value is 46.4. Moreover, in data set [3] (setting [4]), the “Mean difference Good Effects Emax vs placebo” value is reported as 47.6, the “Mean difference Overall Drug Liking Emax vs placebo” value came out at 18.6 and the “Mean difference Take Drug Again Emax vs placebo” value is listed as 17.1. In data set [3] (setting [5]), the “Drug Liking Emax (mean)” value was determined as 80.2, the “Drug Liking Emax (median)” value is reported as 84.0, the “Feeling Alert/Drowsy Emax (mean)” value worked out at 81.4 and the “Feeling Alert/Drowsy Emax (median)” value worked out at 84.0. In data set [3] (setting [5]), the “Overall Drug Liking Emax (mean)” value came to 73.4, the “Overall Drug Liking Emax (median)” value was determined as 77.0, the “Take Drug Again Emax (mean)” value was 72.3 and the “Take Drug Again Emax (median)” value stood at 75.0. Moreover, in data set [3] (setting [6]), the “Any Effects Emax (mean)” value came out at 69.2, the “Any Effects Emax (median)” value was found to be 74.0, the “Bad Effects Emax (mean)” value was 17.9 and the “Bad Effects Emax (median)” value came to 7.0. In addition, in data set [3] (setting [6]), the “Feeling High Emax (mean)” value came out at 65.3, the “Feeling High Emax (median)” value was 76.0, the “Good Effects Emax (mean)” value amounted to 66.2 and the “Good Effects Emax (median)” value worked out at 75.0. Besides, in data set [3], the “Median difference Bad Effects Emax vs placebo” value was 8.0^c.
On to `COC(=O)[C@H](c1ccccc1)[C@H]1CCCCN1C(=O)OC[n+]1cccc(C(=O)N[C@@H](CO)C(=O)O)c1` [serdexmethylphenidate], for which, in data set [1], the “Drug Liking Emax (mean)” value is on record as 56.6.
